Source: patent publication US9629885B1, “Method for treating candidiasis” (KING SAUD UNIVERSITY, priority 2016, dated 2017)
≈ marks a conversion by molar mass, not a printed value. Blank lines part the entries; values can stand above or below the compound they belong to.

What was measured:
[1] = test system: C. kefyr; test: Minimum inhibitory concentration, micro-dilution method; type: cell-based; details: malt extract broth, 37° C., 24-48 h
Source text: (§1) The fungal strain was isolated from a soil sample collected from Al-Qassim region, Kingdom of Saudi Arabia (KSA). The malt extract agar (MEA) medium (malt extract, 20 g; peptone, 1 g; dextrose, 20 g; agar, 20 g; distilled water, 1 L) was used for isolation, cultivation, identification and production of fungal secondary metabolites of the fungal isolate and test Candida species. Ten clinically isolated Candida species; namely, Candida albicans, C. dubliniensis, C. famata, C. glabrata, C. inconspicua, C. kefyr, C. krusei, C. norvegensis, C. parapsilosis, and C. tropicalis were used as test microorganisms. The fungal isolate and the test organism were identified at the Microbiology Laboratory, Regional Center for Mycology and Biotechnology, Al-Azhar University, Cairo, Egypt.
(§2) The minimum inhibitory concentration (MIC) was determined for both total extract of Petriella setifera and the isolated compound by micro-dilution method using serially diluted (2 folds) according to Awaad et al. (2012). The MIC was determined by dilution of total extract and isolated compound of concentrations of 0.0-1000 μg/ml. Equal volume of each extract and malt extract broth were mixed in a test tube. Specifically, 0.1 ml of standardized inoculum (1-2×10^7 CFU/ml) was added in each tube. The tubes were incubated at 37° C. for 24-48 h. Two control tubes; tube containing the growth medium, saline and the inoculum, were maintained for each test batch. The lowest concentration (highest dilution) of the extract that produced no visible candidal growth (no turbidity) when compared with the control tubes were regarded as MIC.

[2] = test system: C. dubliniensis; test: as above; type: cell-based; details: malt extract broth, 37° C., 24-48 h
Source text: as §1, §2

[3] = test system: C. inconspicua; test: as above; type: cell-based; details: malt extract broth, 37° C., 24-48 h
Source text: as §1, §2

[4] = test system: C. krusei; test: as above; type: cell-based; details: malt extract broth, 37° C., 24-48 h
Source text: as §1, §2

[5] = test system: C. parapsilosis; test: as above; type: cell-based; details: malt extract broth, 37° C., 24-48 h
Source text: as §1, §2

[6] = test system: C. norvegensis; test: as above; type: cell-based; details: malt extract broth, 37° C., 24-48 h
Source text: as §1, §2

[7] = test system: Candida albicans; test: as above; type: cell-based; details: C. albicans, malt extract broth, 37° C., 24-48 h
Source text: as §1, §2

[8] = test system: C. glabrata; test: as above; type: cell-based; details: malt extract broth, 37° C., 24-48 h
Source text: as §1, §2

[9] = test system: C. famata; test: as above; type: cell-based; details: malt extract broth, 37° C., 24-48 h
Source text: as §1, §2

[10] = test system: C. tropicalis; test: as above; type: cell-based; details: malt extract broth, 37° C., 24-48 h
Source text: as §1, §2

[11] = test system: C. kefyr; test: Anticandidal activity, well-diffusion method; type: cell-based; details: 50 μl per 6 mm well, 100 mg/ml, 37° C., 24-48 h
Source text: as §1
(§3) Anticandidal activities of total alcoholic extract of Petriella setifera and the isolated compound (amnomopin) were determined using well-diffusion method according to Zain et al. (2012). Petri plates containing 20 ml of malt extract agar medium were seeded with 48 h cultures of candidal inoculums (1-2×10^7 Colony Forming Units [CFU/ml]). Wells (6 mm in diameter) were cut off into agar and 50 μl of extract and the isolated compound were tested in a concentration of 100 mg/ml and incubated at 37° C. for 24-48h. The assessment of anticandidal activity was based on measurement of the diameter of the inhibition zone formed around the well.

[12] = test system: C. dubliniensis; test: Anticandidal activity, well-diffusion method; type: cell-based; details: 50 μl per 6 mm well, 100 mg/ml, 37° C., 24-48 h
Source text: as §1, §3

[13] = test system: C. inconspicua; test: Anticandidal activity, well-diffusion method; type: cell-based; details: 50 μl per 6 mm well, 100 mg/ml, 37° C., 24-48 h
Source text: as §1, §3

[14] = test system: C. krusei; test: Anticandidal activity, well-diffusion method; type: cell-based; details: 50 μl per 6 mm well, 100 mg/ml, 37° C., 24-48 h
Source text: as §1, §3

[15] = test system: C. parapsilosis; test: Anticandidal activity, well-diffusion method; type: cell-based; details: 50 μl per 6 mm well, 100 mg/ml, 37° C., 24-48 h
Source text: as §1, §3

[16] = test system: C. norvegensis; test: Anticandidal activity, well-diffusion method; type: cell-based; details: 50 μl per 6 mm well, 100 mg/ml, 37° C., 24-48 h
Source text: as §1, §3

[17] = test system: Candida albicans; test: Anticandidal activity, well-diffusion method; type: cell-based; details: C. albicans, 50 μl per 6 mm well, 100 mg/ml, 37° C., 24-48 h
Source text: as §1, §3

[18] = test system: C. glabrata; test: Anticandidal activity, well-diffusion method; type: cell-based; details: 50 μl per 6 mm well, 100 mg/ml, 37° C., 24-48 h
Source text: as §1, §3

[19] = test system: C. famata; test: Anticandidal activity, well-diffusion method; type: cell-based; details: 50 μl per 6 mm well, 100 mg/ml, 37° C., 24-48 h
Source text: as §1, §3

[20] = test system: C. tropicalis; test: Anticandidal activity, well-diffusion method; type: cell-based; details: 50 μl per 6 mm well, 100 mg/ml, 37° C., 24-48 h
Source text: as §1, §3

[21] = test system: Male Wister rats; test: Sub-chronic toxicity test, liver and kidney functions; type: in vivo
Description: Male Wister rats (weighing about 150-180 g) were divided into 3 equal groups each of 10 rats. Rats of the first group received the vehicle in a dose of 5 mL/kg and left as normal control. Rats of the second and third groups were administered the alcoholic extract of the investigated fungi (500 mg/kg) and the isolated compound (50 mg/kg). All medications were administered orally daily for 15 consecutive days. Animals were maintained under identical conditions with food and water ad libitum for the entire period with close observation. At the end of the experimental period, blood samples were collected from the orbital plexus of rats, 6 h after the last dose. Samples were left to clot at room temperature for 20 min. The obtained sera were collected and used to determine the activity of (AST) aspirate aminotransferase and (ALT) alanine aminotransferase, levels of urea and creatinine were also estimated (Awaad et al. 2014).
The effect of the total alcohol extract of Petriella setifera and isolated compound (Amnomopin) on liver and kidney functions are provided in Table 2. Three groups of animals (n=10) were orally administered the total alcohol extracts (500 mg/kg) and the isolated compound (50 mg/kg) daily for 15 days, while the control group received water orally. After the treatment period, blood samples were collected, sera were separated and different parameters were measured as provided in Table 2. All values were expressed as mean±S.D.

[22] = rat serum, oral daily for 15 days, mean±S.D., n=10

- Minimum Inhibitory Concentration (MIC) [1]: 00.49 µg/mL
- Minimum Inhibitory Concentration (MIC) [2]: 00.49 µg/mL
- Minimum Inhibitory Concentration (MIC) [3]: 00.98 µg/mL
- Minimum Inhibitory Concentration (MIC) [4]: 00.98 µg/mL
- Minimum Inhibitory Concentration (MIC) [5]: 00.49 µg/mL
- Minimum Inhibitory Concentration (MIC) [6]: 00.49 µg/mL
- Minimum Inhibitory Concentration (MIC) [7]: 00.49 µg/mL
- Minimum Inhibitory Concentration (MIC) [8]: 03.90 µg/mL
- Minimum Inhibitory Concentration (MIC) [9]: 03.90 µg/mL
- Minimum Inhibitory Concentration (MIC) [10]: 03.90 µg/mL
Structure (SMILES): C[C@@H]1[C@H](O)[C@@H](C)/C=C/C=C/C=C/C=C/C=C/C=C/C=C/[C@H](O[C@@H]2O[C@H](C)[C@@H](O)[C@H](N)[C@@H]2O)C[C@@H]2O[C@](O)(C[C@@H](O)C[C@@H](O)[C@H](O)CC[C@@H](O)C[C@@H](O)CC(=O)O[C@H]1C)C[C@H](O)[C@H]2C(=O)O [Amphotericin B, reference compound]
- Diameter of inhibition zone [11]: 26.3 ± 1.20 mm
- Diameter of inhibition zone ([11]; listed as amphotericin B): 26.3±1.20 mm
- Diameter of inhibition zone [12]: 24.1 ± 1.20 mm
- Diameter of inhibition zone [13]: 21.9 ± 1.20 mm
- Diameter of inhibition zone [14]: 23.7 ± 0.63 mm
- Diameter of inhibition zone [15]: 32.4 ± 0.58 mm
- Diameter of inhibition zone [16]: 28.7 ± 0.72 mm
- Diameter of inhibition zone [17]: 26.3 ± 1.20 mm
- Diameter of inhibition zone [18]: 19.3 ± 2.10 mm
- Diameter of inhibition zone [19]: 20.4 ± 0.63 mm
- Diameter of inhibition zone [20]: 19.6 ± 1.50 mm

- MIC ([1]; Kluyveromyces marxianus): 0.49 µg/mL (≈ 0.627 µM)
- Minimum Inhibitory Concentration (MIC) [1]: 00.98 µg/mL
- MIC ([2]; Candida dubliniensis): 62.5 µg/mL (≈ 80 µM)
- MIC ([3]; Pichia inconspicua): 32.2 µg/mL (≈ 41.3 µM)
- MIC ([4]; Pichia kudriavzevii): 1.95 µg/mL (≈ 2.5 µM)
- MIC ([5]; Lodderomyces parapsilosis): 32.2 µg/mL (≈ 41.3 µM)
- MIC ([6]; Pichia norvegensis): 0.98 µg/mL (≈ 1.25 µM)
- Minimum Inhibitory Concentration (MIC) [6]: 01.95 µg/mL
- Minimum Inhibitory Concentration (MIC) [7]: 01.95 µg/mL
- Minimum Inhibitory Concentration (MIC) ([7]; listed as amnomopin): 00.49 µg/mL
- MIC ([8]; Nakaseomyces glabratus): 62.5 µg/mL (≈ 80 µM)
- MIC ([9]; Debaryomyces hansenii): 3.9 µg/mL (≈ 4.99 µM)
- MIC ([10]; Candida tropicalis): 7.81 µg/mL (≈ 10 µM)
Structure (SMILES): CC1(C)CCC2(C(=O)O)CCC3(C)C(CCC4C5(C)CCC(O[C@@H]6OC(CO)[C@@H](O)C(O)C6O[C@@H]6OC(CO)[C@@H](O)C(O)C6O)C(C)(C)C5=CCC43C)C2C1 (stereo partly drawn) [Amnomopin, 3β-diglucoside-5, 12-28-oic acid]
- Diameter of inhibition zone [11]: 24.2 ± 2.10 mm
- zone of inhibition at 100000 µg/mL ([11]; Kluyveromyces marxianus, read-out: Diameter of inhibition zone): 24.2 ± 2.1 mm
- zone of inhibition at 100000 µg/mL ([12]; Candida dubliniensis, read-out: Diameter of inhibition zone): 16.2 ± 0.63 mm
- zone of inhibition at 100000 µg/mL ([13]; Pichia inconspicua, read-out: Diameter of inhibition zone): 18.3 ± 2.1 mm
- zone of inhibition at 100000 µg/mL ([14]; Pichia kudriavzevii, read-out: Diameter of inhibition zone): 20.9 ± 0.58 mm
- zone of inhibition at 100000 µg/mL ([15]; Lodderomyces parapsilosis, read-out: Diameter of inhibition zone): 18.4 ± 0.72 mm
- Diameter of inhibition zone [16]: 22.1 ± 1.20 mm
- zone of inhibition at 100000 µg/mL ([16]; Pichia norvegensis, read-out: Diameter of inhibition zone): 22.1 ± 1.2 mm
- Diameter of inhibition zone [17]: 23.1 ± 2.10 mm
- zone of inhibition at 100000 µg/mL ([17]; Candida albicans, read-out: Diameter of inhibition zone): 23.1 ± 2.1 mm
- zone of inhibition at 100000 µg/mL ([18]; Nakaseomyces glabratus, read-out: Diameter of inhibition zone): 16.3 ± 0.63 mm
- zone of inhibition at 100000 µg/mL ([19]; Debaryomyces hansenii, read-out: Diameter of inhibition zone): 20.1 ± 1.5 mm
- zone of inhibition at 100000 µg/mL ([20]; Candida tropicalis, read-out: Diameter of inhibition zone): 19.4 ± 1.2 mm
- Kidney function Blood urea [21, 22]: 30.85 ± 1.83 mg/dL
- Kidney function Serum Creatinine [21, 22]: 0.38 ± 0.02 mg/dL
- Liver function ALT [21, 22]: 146.30 ± 4.30 U/l
- Liver function AST [21, 22]: 66.72 ± 2.82 U/l
- effect on the activity of ALT, AST and the levels of blood urea and serum creatinine ([21]; rats, oral dosing for 15 days, extract 500 mg/kg, compound 50 mg/kg): did not show any significant effect
